Source: patent US7407988B2, “Carbamic acid compounds comprising a sulfonamide linkage as HDAC inhibitors” (Topotarget UK Limited, priority 2000, dated 2008)
Where a name gives a salt, the structure may show the parent alone. Read-outs that look alike come from different tables or passages of the source.

Experiments:
HeLa cells = assay: Secondary assay: cell proliferation WST-1, HeLa; format: cell-based; conditions: Homo sapiens, read-out: Cell Proliferation Inhibition WST-1 (IC50 unless otherwise specified) HeLa
HDAC (HeLa cell extract) = assay: Primary assay: deacetylase activity, HeLa cell extract as source of HDAC; format: biochemical, human; conditions: for HDAC Inhibition HeLa, % @ 500: Table 1, @ 500
Description: Briefly, this assay relies on the release of radioactive acetate from a radioactively labelled histone fragment by the action of HDAC enzyme. Test compounds, which inhibit HDAC, reduce the yield of radioactive acetate. Signal (e.g., scintillation counts) measured in the presence and absence of a test compound provide an indication of that compound's ability to inhibit HDAC activity. Decreased activity indicates increased inhibition by the test compound.
The histone fragment was an N-terminal sequence from histone H4, and it was labelled with radioactively labelled acetyl groups using tritiated acetylcoenzyme A (coA) in conjunction with an enzyme which is the histone acetyltransferase domain of the transcriptional coactivator p300. […] The acetylated peptide was then separated from free acetyl coA by size exclusion chromatography on Sephadex G-15 (Sigma G-15-120), using distilled H2O as the mobile phase.
After purification of the radiolabelled histone fragment, it was incubated with a source of HDAC (e.g., an extract of HeLa cells (a rich source of HDAC), recombinantly produced HDAC1 or HDAC2) and any released acetate was extracted into an organic phase and quantitatively determined using scintillation counting. By including a test compound with the source of HDAC, that compound's ability to inhibit the HDAC was determined.
Two cell volumes of extraction buffer were used, and particulate material was centrifuged out (20800 g, 4° C., 10 min). The supernatant extract having deacetylase activity was aliquotted and frozen for storage.
A source of HDAC (e.g., 2 μL of crude HeLa extract, 5 μL of HDAC1 or HDAC2; in elution buffer, as above) was incubated with 3 μL of radioactively labelled peptide along with appropriate dilutions of candidate compounds (1.5 μL) in a total volume of 150 μL of buffer (20 mM Tris pH 7.4, 10% glycerol). The reaction was carried out at 37° C. for one hour, after which the reaction was stopped by adding 20 μL of 1 M HCl/0.4 M sodium acetate. […] Radioactivity was measured using a Tri-Carb 21 00TR Liquid Scintillation Analyzer (Packard).
Percent activity (% activity) for each test compound was calculated as: % activity={(S^C−B)/(S°−B)}×100 wherein S^C denotes signal measured in the presence of enzyme and the compound being tested, S° denotes signal measured in the presence of enzyme but in the absence of the compound being tested, and B denotes the background signal measured in the absence of both enzyme and compound being tested.

[1] = system: K11 HPV E7 transformed human keratinocyte line; assay: Secondary assay: cell proliferation WST-1, K11; format: cell-based; conditions: Homo sapiens, Keratinocyte; for IC50: Table 2, 48 h, read-out: Cell Proliferation Inhibition WST-1 (IC50 unless otherwise specified) K11
JURKAT human T-cell line = assay: Secondary assay: cell proliferation WST-1, Jurkat; format: cell-based; conditions: Homo sapiens, Table 2, 48 h, read-out: Cell Proliferation Inhibition WST-1 (IC50 unless otherwise specified) Jurkat
[2] = Table 1, read-out: HDAC Inhibition (IC50 unless otherwise specified) HeLa
[3] = comparative tables, HDAC inhibition, read-out: HeLa IC50

Row | Compound | melting point [°C] | IC50 (HeLa cells; Table 2, 48 h) [nM] | IC50 (HDAC (HeLa cell extract); [2]) [nM] | IC50 (HDAC (HeLa cell extract); [3]) [nM] | IC50 [1] [nM] | IC50 (JURKAT human T-cell line) [nM] | HDAC Inhibition HeLa, % @ 500 (HDAC (HeLa cell extract)) [% @ 500] | HeLa, % @ 500 nM (HDAC (HeLa cell extract); comparative tables) [% @ 500 nM] | inhibition at 20 µM ([1]; Table 2, @ 20 μM, 48 h) [%] | IC50 (HeLa cells; 48 h) [nM]
1 | O=C(CCCCCNS(=O)(=O)c1cccnc1)NO (as salt: oxalate) [PX117432, 6-(Pyridine-3-sulfonylamino)hexanoic acid hydroxyamide oxalate] | 132 to 134 | – | – | – | – | – | – | – | – | –
2 | O=C(/C=C/c1ccc(NS(=O)(=O)c2ccccc2)cc1)NO [PX106499, 3-(4-Benzenesulfonylaminophenyl)-N-hydroxyacrylamide] | – | 3800 | 35 | 35 | – | – | – | – | – | –
3 | O=C(/C=C/c1cccc(S(=O)(=O)Nc2ccc(Br)cc2)c1)NO [PX106509] | 204 | 2000 | 6 | – | 2000 | 330 | – | – | – | –
4 | O=C(/C=C/c1cccc(S(=O)(=O)Nc2ccc(Cl)cc2)c1)NO [PX106510] | 198 | 2300 | 12 | – | 4200 | 250 | – | – | – | –
5 | O=C(/C=C/c1cccc(S(=O)(=O)NCc2ccccc2)c1)NO [PX106511] | 179 | 380 | 35 | 35 | 2500 | 235 | – | – | – | –
6 | O=C(CCCCCNS(=O)(=O)c1ccccc1)NO [PX106522, 6-Benzenesulfonylaminohexanoic acid hydroxyamide] | 80 to 82 | 16700 | 1580 | 1600 | – | – | – | – | – | –
7 | O=C(/C=C/C#Cc1cccc(S(=O)(=O)Nc2ccccc2)c1)NO [PX116238, (E)-5-(3-Phenylsulfamoylphenyl)pent-2-en-4-ynoic acid hydroxyamide] | 88 to 90 | 800 | 14 | 14 | – | – | – | – | – | –
8 | O=C(/C=C/c1ccccc1S(=O)(=O)Nc1ccccc1)NO [PX116242, N-Hydroxy-3-(2-phenylsulfamoylphenyl)acrylamide] | 205 to 206.5 | – | – | – | – | – | 9 | 9 | – | –
9 | O=C(/C=C/c1cccc(S(=O)(=O)NCc2cccc3ccccc23)c1)NO [PX117225, N-Hydroxy-3-{3-[(naphthalen-1-ylmethyl)sulfamoyl]-phenyl}-acrylamide] | 177 | – | 640 | 640 | – | 3300 | – | – | 26 | 11900
10 | O=C(/C=C/c1cccc(S(=O)(=O)NCc2ccc3c(c2)OCO3)c1)NO [PX117226, 3-{3-[(Benzo[1,3]dioxol-5-ylmethyl)-sulfamoyl]-phenyl}-N-hydroxy-acrylamide] | 163 | 500 | 26.3 | – | 2800 | 100 | – | – | – | –
11 | COc1ccccc1NS(=O)(=O)c1cccc(/C=C/C(=O)NO)c1 [PX117227, N-Hydroxy-3-[3-(2-methoxy-phenylsulfamoyl)-phenyl]-acrylamide] | 181 | 1200 | 50 | – | 4700 | 360 | – | – | – | –
12 | O=C(CCCCS(=O)(=O)Nc1ccccc1)NO [PX117233, 5-(Anilinosulfonyl)-N-hydroxypentanamide] | 128 to 129 | – | – | – | – | – | 21 | – | – | –
13 | O=C(CCCCCS(=O)(=O)Nc1ccccc1)NO [PX117234, 6-(Anilinosulfonyl)-N-hydroxyhexanamide] | 97 to 98 | – | – | – | – | – | 59 | 59 | – | –
14 | O=C(CCCCS(=O)(=O)Nc1ccc2ccccc2c1)NO [PX117235, N-Hydroxy-5-[(2-naphthylamino)sulfonyl]pentanamide] | 163 to 164 | – | – | – | – | – | 40 | – | – | –
15 | O=C(CCCCCCS(=O)(=O)Nc1ccccc1)NO [PX117236] | 94 to 95 | – | – | – | – | – | 54 | – | – | –
